Results from patent US20230067929A1, “HETEROCYCLIC DERIVATIVES, PHARMACEUTICAL COMPOSITIONS AND THEIR USE IN THE TREATMENT, AMELIORATION OR PREVENTION OF CANCER” (Tolremo Therapeutics AG, priority 2018, published 2023).

test system: A375 cells; test: A375 cell immunofluorescence assay (with 1 μM S1152 and 0.5 μM S1008), EC50; assay type: cell-based; conditions: 1 μM S1152 + 0.5 μM S1008, one day, ratio FL2/FL3 staining (sc-365823 antibody)
Experimental: One thousand four hundred A375 cells were seeded in each well of a 384 well microplate. One day later they were treated with 1 μM S1152 (Selleckchem) in dimethyl sulfoxide, 0.5 μM S1008 (Selleckchem) and dose ranges of invention compounds for one day in Dulbecco's Modified Eagle's Medium supplemented with 10% fetal calf serum and 2 mM (2S)-2-amino-4-carbamoylbutanoic acid. Wells were incubated with 4% polyoxymethylene (Sigma Aldrich 158127) at ambient temperature. After ten minutes, polyoxymethylene was replaced with phosphate-buffered saline. After one minute phosphate-buffered saline was replaced with 0.2% polyethylene glycol octylphenyl ether in phosphate-buffered saline. After ten minutes at ambient temperature 0.2% polyethylene glycol octylphenyl ether in phosphate-buffered saline was replaced with 1% aminoethanoic acid in phosphate-buffered saline. […] After one hour at 37° C., the solution was replaced with phosphate-buffered saline twice. Phosphate-buffered saline was replaced with 2 μg/ml A-11029 (Invitrogen) in 0.05% polyoxyethylene (20) sorbitan monolaurate in phosphate-buffered saline. […] After one hour at ambient temperature in the dark, signal in wells was measured with a Acumen Cellista. 3,8-Diamino-5-[3-(diethylmethylammonio)propyl]-6-phenylphenanthridinium diiodide-positive objects were defined in FL3 (565-600 nm) with a perimeter between 50-800 μm and a total intensity of 10000-1000000 FLU. Signal in FL2 (500-530 nm) was measured in defined objects. A normalized ratio of total ln FL2 over total ln FL3 staining was log transformed. A non-linear regression (variable slope, 4 parameters) was used to calculate EC50 values using GraphPad Prism (Version 7.0d).

EC50 [µM] | Compound
1 to 10 | CC(=O)N1CCCC(c2nc(Nc3cccc(F)c3)cc(-c3cc(Cl)cs3)n2)C1 (stereo not drawn)
< 1 | CC(=O)N1CCCC(c2nc(Nc3cccc(F)c3)cc(-c3cncc(C4COC4)c3)n2)C1 (stereo not drawn)
1 to 10 | CCC(=O)N1CCCC(c2nc(Nc3cccc(F)c3)cc(-c3cnccc3OC)n2)C1 (stereo not drawn)
1 to 10 | CCC(=O)N1CCCC(c2nc(Nc3ccc(OC)cc3)cc(-c3cccnc3)n2)C1 (stereo not drawn)
> 10 | CN1CCC(c2nc(Nc3cccc(F)c3)cc(-c3cccnc3)n2)CC1=O (stereo not drawn)
> 10 | CCC(=O)N1CCCC(c2nc(Nc3cccc(F)c3)cc(C3CCCC3)n2)C1 (stereo not drawn)
> 10 | CCC(=O)N1CCCC(c2nc(Nc3cccc(F)c3)cc(C3=CCCC3)n2)C1 (stereo not drawn)
> 10 | CC(C)C(=O)N1CCCC(c2nc(Nc3cccc(F)c3)cc(-c3cccnc3)n2)C1 (stereo not drawn)
1 to 10 | COC(=O)N1CCCC(c2nc(Nc3cccc(F)c3)cc(-c3cccnc3)n2)C1 (stereo not drawn)
> 10 | CCC(=O)N1CCCC(c2nc(NC3CC3)cc(-c3cccnc3)n2)C1 (stereo not drawn)
< 1 | CC(=O)N1CCCC(c2nc(Nc3cccc(F)c3)cc(-c3cc(C)cs3)n2)C1 (stereo not drawn)
> 10 | CC(=O)N1CC(c2cc(Nc3cccc(F)c3)cc(-c3cccnc3)n2)CCC1C (stereo not drawn) [drawing 689]
< 1 | COc1csc(-c2cc(Nc3cccc(F)c3)nc(C3CCCN(C(C)=O)C3)n2)c1 (stereo not drawn)
1 to 10 | CC(=O)N1CCCC(c2nc(Nc3cncc(F)c3)cc(-c3cccnc3)n2)C1 (stereo not drawn)
1 to 10 | CC(=O)N1CCC(C)C(c2nc(Nc3cccc(F)c3)cc(-c3cccnc3)n2)C1 (stereo not drawn) [drawing 720]
> 10 | CCCN1CCCC(c2nc(Nc3cccc(F)c3)cc(-c3cccnc3)n2)C1 (stereo not drawn)
1 to 10 | CCC(=O)N1CCCC(c2nc(Nc3cccc(F)c3)cc(-c3cccc(O)c3)n2)C1 (stereo not drawn)
> 10 | CC(=O)N1CCCC(c2nc(Nc3cccc(F)c3)cc(-c3ncco3)n2)C1 (stereo not drawn)
< 1 | CC(=O)N1CCCC(c2nc(Nc3ccc(C)c(C)c3)cc(-c3cccnc3)n2)C1 (stereo not drawn)
1 to 10 | CC(=O)N1CCCC(c2nc(Nc3cccc(F)c3)cc(-c3cncc(C(=O)N4C[C@@H]5C[C@H]4CO5)c3)n2)C1 (stereo partly drawn)
1 to 10 | CC(=O)N1CCCC(c2cc(Nc3cccc(F)c3)cc(-c3cccnc3)n2)C1 (stereo not drawn)
> 10 | CC(=O)N1CCCC(c2nc(Nc3cccnn3)cc(-c3cccnc3)n2)C1 (stereo not drawn)

EC50 [µM] | Compound
> 10 | O=C(CC(F)(F)F)N1CCCC(c2nc(Nc3cccc(F)c3)cc(-c3cccnc3)n2)C1 (stereo not drawn)
> 10 | CC(=O)N1CC(c2nc(Nc3cccc(F)c3)cc(-c3cccnc3)n2)Cc2ccccc21 (stereo not drawn)
< 1 | CC(=O)N1CCC[C@@H](c2nc(Nc3cccc(F)c3)cc(-c3cccnc3)n2)C1
1 to 10 | CC(=O)N1CCCC(c2nc(NC34CC(C3)C4)cc(-c3cncc4[nH]ccc34)n2)C1 (stereo not drawn)
1 to 10 | CC(=O)N1CCCC(c2nc(Nc3ccccc3)cc(-c3cccnc3)n2)C1 (stereo not drawn)
> 10 | CCC(=O)N1CCCC(c2nc(C)cc(Nc3cccc(F)c3)n2)C1 (stereo not drawn)
> 10 | COc1cncc(-c2cc(Nc3cccc(-n4cnnc4)c3)nc(C3CCCN(C(C)=O)C3)n2)c1 (stereo not drawn)
1 to 10 | CC(=O)N1C[C@H](c2nc(Nc3cccc(C)c3)cc(-c3cncc4[nH]ncc34)n2)CC[C@@H]1C
> 10 | CCC(=O)N1CCCC(c2nc(Nc3cccc(F)c3)cc(-c3cc[nH]n3)n2)C1 (stereo not drawn)
> 10 | CC(=O)N1CCCC(c2nc(Nc3cccc(F)c3)cc(-c3cccnc3)n2)C1C (stereo not drawn)
> 10 | O=S(=O)(N1CCCC(c2nc(Nc3cccc(F)c3)cc(-c3cccnc3)n2)C1)C(F)(F)F (stereo not drawn)
> 10 | CC(=O)N1CCCC(c2nc(Nc3cccc(F)c3)cc(-c3cncc(N4CCN(C)CC4)c3)n2)C1 (stereo not drawn)
> 10 | CC(=O)N1CCCC(c2nc(Nc3cccc(F)c3)cc(-c3ncc(C)o3)n2)C1 (stereo not drawn)
1 to 10 | CC(=O)N1CCCC(c2cc(Nc3cccc(F)c3)cc(-c3c(C)noc3C)n2)C1 (stereo not drawn)
> 10 | CCC(=O)N1CCCC(c2nc(Cc3cccc(F)c3)cc(-c3cccnc3)n2)C1 (stereo not drawn)
1 to 10 | CCC(=O)N1CCCC(c2nc(Nc3cccc(F)c3)cc(-c3cccc(N4CCOCC4)c3)n2)C1 (stereo not drawn)
1 to 10 | CCC(=O)N1CCCC(c2nc(Nc3cc(OC)cc(OC)c3)cc(-c3cccnc3)n2)C1 (stereo not drawn)
1 to 10 | CC(=O)N1CCCC(c2nc(Nc3cccc(F)c3)cc(-c3cccs3)n2)C1 (stereo not drawn)
< 1 | CC(=O)N1CCCC(c2nc(Nc3cccc(F)c3)cc(-c3cncc(N4CCOCC4)c3)n2)C1 (stereo not drawn)
> 10 | CCC(=O)N1CCCC(c2nc(Nc3cccc(F)c3)cc(Nc3cccc(F)c3)n2)C1 (stereo not drawn)
1 to 10 | CC(=O)N1CCCC(c2nc(Nc3cccnc3)cc(Nc3cccc(F)c3)n2)C1 (stereo not drawn)
> 10 | CCC(=O)N1CCCC(c2nc(Nc3cccc(F)c3)cc(-c3cscn3)n2)C1 (stereo not drawn)

EC50 [µM] | Compound
1 to 10 | CC(=O)N1CCCC(c2nc(Nc3ccccn3)cc(-c3cncc4[nH]ccc34)n2)C1 (stereo not drawn)
1 to 10 | CC(=O)N1CCCC(c2cc(-c3cccnc3)cc(Nc3cccc(F)c3)n2)C1 (stereo not drawn)
> 10 | CN1CCOC(c2nc(Nc3cccc(F)c3)cc(-c3cccnc3)n2)C1 (stereo not drawn)
> 10 | COc1cncc(-c2cc(Cc3cccc(F)c3)nc(C3CCCN(C(C)=O)C3)n2)c1 (stereo not drawn)
> 10 | CCC(=O)N1CCCC(c2nc(Nc3ccc(OC)nc3)cc(-c3cccnc3)n2)C1 (stereo not drawn)
1 to 10 | CC(=O)N1CC(F)CC(c2nc(Nc3cccc(F)c3)cc(-c3cccnc3)n2)C1 (stereo not drawn) [drawing 702]
1 to 10 | COC(=O)N1CCOCC(c2nc(Nc3cccc(F)c3)cc(-c3cccnc3)n2)C1 (stereo not drawn)
< 1 | CC(=O)N1CCCC(c2nc(Nc3cccc(C)c3)cc(-c3cncc(N4CCOCC4)c3)n2)C1 (stereo not drawn)
1 to 10 | CCC(=O)N1CCCC(c2nc(Nc3ccccc3Cl)cc(-c3cccnc3)n2)C1 (stereo not drawn)
1 to 10 | CCC(=O)N1CCCC(c2nc(Nc3cccc(F)c3)cc(-c3cccc(C#N)c3)n2)C1 (stereo not drawn)
1 to 10 | CC(=O)N1CC(OCc2ccccc2)CC(c2nc(Nc3cccc(F)c3)cc(-c3cccnc3)n2)C1 (stereo not drawn)
1 to 10 | CC(=O)N1CCCC(c2nc(Nc3cccc(F)c3)cc(Nc3ccccn3)n2)C1 (stereo not drawn)
> 10 | CCC(=O)N1CCCC(c2nc(Cl)cc(Nc3ccccc3F)n2)C1 (stereo not drawn)
> 10 | CC(=O)N1CCCC(c2nc(Nc3cccc(F)c3)cc(-c3cncc(C(=O)O)c3)n2)C1 (stereo not drawn)
> 10 | CCC(=O)N1CCCC(c2nc(Nc3cccc(F)c3)cc(-c3cnn(C4CCC4)c3)n2)C1 (stereo not drawn)
1 to 10 | CC(=O)N1CCCC(c2nc(Nc3cncnc3)cc(Nc3cccc(F)c3)n2)C1 (stereo not drawn)
1 to 10 | COc1cncc(-c2cc(Nc3cccc(Cl)c3)nc([C@H]3CCCN(C(C)=O)C3)n2)c1
> 10 | CCC(=O)N1CCCC(c2nc(Nc3cccc(F)c3)cc(-c3ccc(N(C)C)nc3)n2)C1 (stereo not drawn)
1 to 10 | CC(=O)N1CCCC(c2nc(Nc3cccc(F)c3)cc(-c3ccncc3)n2)C1 (stereo not drawn)
1 to 10 | CC(=O)N1CCCC(c2nc(Nc3cncc(C)c3)cc(-c3cccnc3)n2)C1 (stereo not drawn)
> 10 | CC(=O)N1CCCC(c2nc(Nc3ccncc3)cc(Nc3cccc(F)c3)n2)C1 (stereo not drawn)
> 10 | COC(=O)c1cncc(-c2cc(Nc3cccc(F)c3)nc(C3CCCN(C(C)=O)C3)n2)c1 (stereo not drawn)

EC50 [µM] | Compound
1 to 10 | COc1cncc(-c2cc(Nc3cccc(OCCOCCOCCNC(C)=O)c3)nc(C3CCCN(C(C)=O)C3)n2)c1 (stereo not drawn)
> 10 | CC(=O)N1CCCC(c2nc(Nc3cccc(F)c3)cc(-c3cncc4cc[nH]c34)n2)C1 (stereo not drawn)
> 10 | CC(=O)N1CCCC(c2nc(Nc3cccnc3)cc(-c3cncc4[nH]ccc34)n2)C1 (stereo not drawn)
> 10 | CC(=O)N1C[C@@H](c2nc(Nc3cccc(F)c3)cc(-c3cncc(O)c3)n2)CC[C@H]1C
1 to 10 | CCC(=O)N1CCCC(c2nc(Nc3cccc(F)c3)cc(-c3cncc(OC)c3)n2)C1 (stereo not drawn)
1 to 10 | O=C(C1CC1)N1CCCC(c2nc(Nc3cccc(F)c3)cc(-c3cccnc3)n2)C1 (stereo not drawn)
> 10 | CC(=O)N1CCC[C@H](c2nc(Nc3cccc(F)c3)cc(-c3cccnc3)n2)C1
> 10 | CC(=O)N1CCCC(c2nc(Nc3cncnc3)cc(-c3cccnc3)n2)C1 (stereo not drawn)
1 to 10 | CC(=O)N1CCCC(c2nc(Nc3cccc(F)c3)cc(-c3ccccc3)n2)C1 (stereo not drawn)
> 10 | CC(=O)N1CC(c2nc(Nc3cccc(F)c3)cc(-c3cccnc3)n2)CCC1(C)C (stereo not drawn)
< 1 | CC(=O)N1C[C@H](c2nc(Nc3cccc(F)c3)cc(-c3cccnc3)n2)CC[C@@H]1C
> 10 | CCC(=O)N1CCCC(c2nc(NCc3ccccc3)cc(Nc3cccc(F)c3)n2)C1 (stereo not drawn)
1 to 10 | CCC(=O)N1CCCC(c2nc(Nc3cccc(Cl)c3)cc(-c3cccnc3)n2)C1 (stereo not drawn)
1 to 10 | CCC(=O)N1CCCC(c2nc(Nc3cccc(F)c3)cc(-c3cccc(NC(C)=O)c3)n2)C1 (stereo not drawn)
1 to 10 | CC(=O)N1CCCC(c2nc(Nc3ccnc(C)c3)cc(-c3cccnc3)n2)C1 (stereo not drawn)
1 to 10 | CC(=O)N1CCCC(c2cc(-c3cccnc3)nc(Nc3cccc(F)c3)n2)C1 (stereo not drawn)
< 1 | CC(=O)N1C[C@H](c2nc(Nc3cccnc3)cc(-c3cccnc3)n2)CC[C@@H]1C
> 10 | CCC(=O)N1CCCC(c2nc(Nc3cccc(F)c3)cc(-c3ccccc3OC)n2)C1 (stereo not drawn)
< 1 | CC(=O)Nc1ccc(-c2cc(Nc3cccc(F)c3)nc(C3CCCN(C(C)=O)C3)n2)cc1 (stereo not drawn)
1 to 10 | CC(=O)N1CCCC(c2cc(Nc3cccc(F)c3)nc(-c3cccnc3)n2)C1 (stereo not drawn)
> 10 | CC(=O)N1CC2(c3nc(Nc4cccc(F)c4)cc(-c4cccnc4)n3)CCC1CC2
